Data from patent publication US10487291B2, “Detergent or cleaning agent having GLDA-enhanced antimicrobial effect” (Henkel AG & Co. KGaA, priority 2016, dated 2019).

Test system: Pseudomonas aeruginosa
Assay: Test for determining the reduction of Pseudomonas aeruginosa according to EN 1276
Format: cell-based
Settings: for reduction of Pseudomonas aeruginosa (antibacterial effect): EN 1276
Protocol: The washing agent was used in a test for determining the reduction of Pseudomonas aeruginosa according to EN 1276. The obtained value served as a reference. 0.10 wt. % GLDA or 0.50 wt. % were then added to the washing agent and likewise used in the test for determining the reduction of Pseudomonas aeruginosa according to EN 1276. The all-purpose cleaner was used in a test for determining the reduction of Pseudomonas aeruginosa according to EN 1276. The obtained value served as a reference. 0.10 wt. % GLDA or 0.50 wt. % were then added to the all-purpose cleaner and likewise used in the test for determining the reduction of Pseudomonas aeruginosa according to EN 1276.

SMILES: O=C(O)CC[C@@H](C(=O)O)N(CC(=O)O)CC(=O)O [Glutamic acid diacetic acid (GLDA), glutamic acid-N,N-diacetic acid]
- reduction of Pseudomonas aeruginosa (antibacterial effect) (Table 1, Example 1, concentration glutamic acid diacetic acid 0.10% (according to the invention)): 7.65E+00
- reduction of Pseudomonas aeruginosa (antibacterial effect) (Table 1, Example 1, concentration glutamic acid diacetic acid 0.50% (according to the invention)): 6.90E+01
- reduction of Pseudomonas aeruginosa (antibacterial effect) (Table 2, Example 2, concentration glutamic acid diacetic acid 0.10% (according to the invention)): 7.65E+00
- reduction of Pseudomonas aeruginosa (antibacterial effect) (Table 2, Example 2, concentration glutamic acid diacetic acid 0.50% (according to the invention)): 6.90E+01
- antimicrobial / antibacterial effect (in words) (substance on its own (GLDA itself; agent exclusively comprising QAC)): does not have an antimicrobial effect
